Test results taken from ChEMBL document CHEMBL1126835, “QSAR's from similarity matrices. Technique validation and application in the comparison of different similarity evaluation methods” (J Med Chem, 1993).

Species: Gallus gallus
Assay: Tested for anti-coccidial activity
Format: functional

For `Cc1cc(C)cc(-n2ncc(=O)[nH]c2=O)c1`, which “Log 1/MEC” value is on record?
The value was 0.86.

Which “Log 1/MEC” value does the source give for `Cc1cc(-n2ncc(=O)[nH]c2=O)cc(Cl)c1Oc1ccc(Cl)cc1` here?
The value was 1.98.

Which “Log 1/MEC” value does the source give for `Cc1cc(-n2ncc(=O)[nH]c2=O)cc(Cl)c1Oc1ccc(S(=O)(=O)NC2CC2)cc1Cl` here?
The value was 1.51.

With `COc1cc(-n2ncc(=O)[nH]c2=O)cc(OC)c1OC` as the compound, how does the “Log 1/MEC” value read?
Its value is -0.55.

For `Cc1cc(-n2ncc(=O)[nH]c2=O)ccc1Oc1ccc(Cl)cc1`, which “Log 1/MEC” value is on record?
Its value is 0.74.

For `COc1c(Cl)cc(-n2ncc(=O)[nH]c2=O)cc1Cl`, which “Log 1/MEC” value is on record?
Its value is 0.06.

How did the “Log 1/MEC” value turn out when `Cc1cc(-n2ncc(=O)[nH]c2=O)cc(Cl)c1Oc1ccc(C(C)O)cc1` (stereo unspecified) was run?
The value was 2.27.

With `Cc1cc(-n2ncc(=O)[nH]c2=O)cc(C)c1S(=O)(=O)N1CCOCC1` as the compound, how does the “Log 1/MEC” value read?
The value was 1.39.

Which “Log 1/MEC” value does the source give for `COc1cc(OC)cc(-n2ncc(=O)[nH]c2=O)c1` here?
Its value is -0.3.

How did the “Log 1/MEC” value turn out when `O=c1cnn(-c2ccc(Oc3ccc4cc(Br)ccc4c3)c(Cl)c2)c(=O)[nH]1` was run?
Its value is 1.77.

With `Cc1cc(-n2ncc(=O)[nH]c2=O)cc(C)c1[S+]([O-])c1ccc(Cl)cc1` (stereo unspecified) as the compound, how does the “Log 1/MEC” value read?
The value was 2.58.

`CSc1ccc(Oc2ccc(-n3ncc(=O)[nH]c3=O)cc2Cl)cc1` was tested. Which “Log 1/MEC” value did it give?
The value was 1.98.

With `Cc1cc(-n2ncc(=O)[nH]c2=O)ccc1Oc1ccc(Cl)cc1Cl` as the compound, how does the “Log 1/MEC” value read?
Its value is 1.69.

How did the “Log 1/MEC” value turn out when `O=c1cnn(-c2ccc(Oc3ccc(I)cc3)c(Cl)c2)c(=O)[nH]1` was run?
The value was 1.77.

For `O=c1cnn(-c2ccc(Sc3ccc(Cl)cc3)c(Cl)c2)c(=O)[nH]1`, which “Log 1/MEC” value is on record?
The value was 2.26.

Which “Log 1/MEC” value does the source give for `O=c1cnn(-c2cc(Cl)c(Cc3ccc(Cl)cc3)c(Cl)c2)c(=O)[nH]1` here?
The value was 3.18.

With `O=c1cnn(-c2cccc(Cl)c2)c(=O)[nH]1` as the compound, how does the “Log 1/MEC” value read?
Its value is 0.25.

Which “Log 1/MEC” value does the source give for `Cc1cc(-n2ncc(=O)[nH]c2=O)ccc1C(O)c1ccccc1` (stereo unspecified) here?
Its value is 1.01.

`O=c1cnn(-c2cc(Cl)c(Sc3ccc(Cl)cc3)c(Cl)c2)c(=O)[nH]1` was tested. Which “Log 1/MEC” value did it give?
The value was 3.3.

With `O=c1cnn(-c2ccc([N+](=O)[O-])cc2)c(=O)[nH]1` as the compound, how does the “Log 1/MEC” value read?
Its value is -0.03.

Which “Log 1/MEC” value does the source give for `O=c1cnn(-c2cc(Cl)cc(Cl)c2)c(=O)[nH]1` here?
Its value is 1.81.

How did the “Log 1/MEC” value turn out when `CSc1ccc(Oc2ccc(-n3ncc(=O)[nH]c3=O)cc2C)cc1` was run?
Its value is 2.23.

`O=c1cnn(-c2ccc(Sc3ccc4ccccc4c3)c(Cl)c2)c(=O)[nH]1` was tested. Which “Log 1/MEC” value did it give?
Its value is 0.48.

How did the “Log 1/MEC” value turn out when `Cc1cc(-n2ncc(=O)[nH]c2=O)cc(Cl)c1S(=O)(=O)c1ccc(Cl)cc1` was run?
The value was 1.71.

Which “Log 1/MEC” value does the source give for `N#CC(c1ccc(Cl)cc1)c1c(Cl)cc(-n2ncc(=O)[nH]c2=O)cc1Cl` (stereo unspecified) [DICLAZURIL] here?
The value was 3.61.

For `O=c1cnn(-c2ccccc2)c(=O)[nH]1`, which “Log 1/MEC” value is on record?
Its value is -0.42.

`CC(=O)c1ccc(Sc2c(C)cc(-n3ncc(=O)[nH]c3=O)cc2Cl)cc1` was tested. Which “Log 1/MEC” value did it give?
The value was 3.19.

`CSc1ccc(Oc2c(C)cc(-n3ncc(=O)[nH]c3=O)cc2C)cc1` was tested. Which “Log 1/MEC” value did it give?
Its value is 2.25.

`O=c1cnn(-c2cc(Cl)c(S(=O)(=O)c3ccc(Cl)cc3)c(Cl)c2)c(=O)[nH]1` was tested. Which “Log 1/MEC” value did it give?
Its value is 2.94.

For `O=c1cnn(-c2ccc(C(O)c3ccc(Cl)cc3)c(Cl)c2)c(=O)[nH]1` (stereo unspecified), which “Log 1/MEC” value is on record?
Its value is 2.26.

Which “Log 1/MEC” value does the source give for `Cc1cc(Cl)cc(-n2ncc(=O)[nH]c2=O)c1` here?
The value was 1.2.

`O=c1cnn(-c2ccc(S(=O)(=O)c3ccc(Br)cc3)cc2)c(=O)[nH]1` was tested. Which “Log 1/MEC” value did it give?
Its value is 1.71.

For `O=c1cnn(-c2ccc(S(=O)(=O)c3ccc(Cl)cc3)cc2)c(=O)[nH]1`, which “Log 1/MEC” value is on record?
The value was 1.96.

How did the “Log 1/MEC” value turn out when `O=c1cnn(-c2ccc(Cc3ccc(Cl)cc3)c(Cl)c2)c(=O)[nH]1` was run?
The value was 1.64.

How did the “Log 1/MEC” value turn out when `Cc1cc(-n2ncc(=O)[nH]c2=O)ccc1Oc1ccc(Br)cc1` was run?
Its value is 1.7.

How did the “Log 1/MEC” value turn out when `O=c1cnn(-c2ccc(Br)c(C(F)(F)F)c2)c(=O)[nH]1` was run?
The value was 1.35.

`O=c1cnn(-c2ccc(F)c(C(F)(F)F)c2)c(=O)[nH]1` was tested. Which “Log 1/MEC” value did it give?
The value was 1.26.

`Cc1cc(-n2ncc(=O)[nH]c2=O)cc(C)c1S(=O)(=O)c1ccc(Cl)cc1` was tested. Which “Log 1/MEC” value did it give?
The value was 2.59.

`Cc1cc(-n2ncc(=O)[nH]c2=O)cc(C)c1Sc1ccc(Cl)cc1` [TIAZURIL] was tested. Which “Log 1/MEC” value did it give?
Its value is 2.86.

For `O=c1cnn(-c2ccc(S(=O)(=O)N3CCOCC3)c(Cl)c2)c(=O)[nH]1`, which “Log 1/MEC” value is on record?
The value was 1.09.

With `Cc1cc(-n2ncc(=O)[nH]c2=O)cc(Cl)c1Sc1ccc(Cl)cc1` as the compound, how does the “Log 1/MEC” value read?
The value was 3.28.
